Source: patent publication US7638624B2, “Compositions and methods relating to novel benzodiazepine compounds and derivatives” (The Regents of the University of Michigan, priority 2005, dated 2009)

Legend:
Ramos cells [1] = assay: Ramos cells exposed to compounds, O2- detected with dihydroethidium (DHE); assay type: cell-based; conditions: 1 hour, 2% FBS, FIG. 2
Method: (§1) Ramos cells were exposed to the following compounds:
To detect O2^−, cells were incubated with dihydroethidium (DHE).

Ramos cells [2] = assay: Detection of cell death in Ramos cells, viability by propidium iodide staining; assay type: cell-based; conditions: 24 hours, 2% FBS, PI 1 μg/mL, FIG. 1
Method: as §1
Cell viability was assessed by staining with propidium iodide (PI, 1 μg/mL).

F1F0-ATPase = F1F0-ATPase inhibition; cited from earlier work

In the case of `CC1CN(c2ccc(O)cc2)c2cc(Cl)ccc2N(Cc2ccc3ccccc3c2)C1=O` (stereo not drawn) [GD-423], the “cellular death (O2- detection with dihydroethidium)” value (Ramos cells [1]) is reported as “causes cell death” and the “cellular death (cell viability by propidium iodide staining)” value (Ramos cells [2]) is reported as “causes cell death”.
For `CC[C@H]1/C=C/C=C/C[C@@H](C)[C@H](O)[C@@](C)(O)C(=O)[C@@H](C)[C@H](O)[C@@H](C)C(=O)[C@@H](C)[C@H](O)[C@@H](C)/C=C/C(=O)O[C@@H]2[C@H](C)[C@H](CC1)O[C@]1(CC[C@H](C)[C@H](C[C@@H](C)O)O1)[C@H]2C` [oligomycin], the IC50 (F1F0-ATPase) is listed as 10 nM.
